According to patent publication US20240002391A1, “4-ALKOXYPYRROLO[2,1-F][1,2,4]TRIAZINES AND PREPARATION AND USES THEREOF” (BioSplice Therapeutics, Inc., priority 2022, published 2024):

What follows are molecules tested against recombinant DYRK1A kinase (Homo sapiens (Human), UniProt Q13627) (assay: DYRK1A kinase assay (Ser/Thr 18 peptide Z-lyte FRET)). Conditions: DYRK1A kinase activity, Z-lyte Ser/Thr 18 peptide, 15 μM ATP; method text calls the value IC50; read-out: EC50 (the source's name).
Type: biochemical
Summary of the method: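 Steps: combine 0.25 μg/mL kinase, 15 μM ATP and 4 μM peptide with test compound; incubate 1 h at room temperature; add diluted development reagent for another hour; read coumarin and fluorescein emission at Ex 400. The emission ratio yields percent phosphorylation, from which IC50 is derived.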

Q: How did the IC50 turn out when `COc1nc(N[C@@H]2CCN(C(=O)C3(C#N)CC3)CC2(F)F)nn2ccc(-c3ccc4nnn(CC(F)F)c4c3)c12` [Compound 791, (R)-1-(4-((5-(1-(2,2-Difluoroethyl)-1H-benzo[d][1,2,3]triazol-6-yl)-4-methoxypyrrolo[2,1-f][1,2,4]triazin-2-yl)amino)-3,3-difluoropiperidine-1-carbonyl)cyclopropane-1-carbonitrile] was run?
A: 2.2 nM

Q: For `COc1nc(NC2CCOCC2)nn2ccc(-c3ccn4nccc4c3)c12` [Compound 36, 4-Methoxy-5-(pyrazolo[1,5-a]pyridin-5-yl)-N-(tetrahydro-2H-pyran-4-yl)pyrrolo[2,1-f][1,2,4]triazin-2-amine], which IC50 is on record?
A: 12.1 nM

Q: For `COc1nc(NC2CCC3(CC2)CNC3)nn2ccc(-c3ccc4ncnn4c3)c12` [Compound 195, 5-([1,2,4]Triazolo[1,5-a]pyridin-6-yl)-4-methoxy-N-(2-azaspiro[3.5]nonan-7-yl)pyrrolo[2,1-f][1,2,4]triazin-2-amine], which IC50 is on record?
A: 3.9 nM

Q: `COc1nc(N[C@H]2CC[C@@](C)(O)CC2)nn2ccc(-c3cc(F)c4nnn(CC(F)F)c4c3)c12` [Compound 810, (1s,4s)-4-((5-(1-(2,2-Difluoroethyl)-4-fluoro-1H-benzo[d][1,2,3]triazol-6-yl)-4-methoxypyrrolo[2,1-f][1,2,4]triazin-2-yl)amino)-1-methylcyclohexan-1-ol] was tested. Which IC50 did it give?
A: 10.9 nM

Q: How did the IC50 turn out when `COc1nc(N[C@@H]2CCN(C)CC2(F)F)nn2ccc(-c3ccc4nc(C)n(CC(F)F)c4c3)c12` [Compound 138, (R)—N-(3,3-Difluoro-1-methylpiperidin-4-yl)-5-(1-(2,2-difluoroethyl)-2-methyl-1H-benzo[d]imidazol-6-yl)-4-methoxypyrrolo[2,1-f][1,2,4]triazin-2-amine] was run?
A: 4.3 nM

Q: For `COc1nc(N[C@@H]2CN(C3COC3)C[C@@H]2F)nn2ccc(-c3ccc4nccnc4c3)c12` [Compound 355, N-((3R,4S)-4-Fluoro-1-(oxetan-3-yl)pyrrolidin-3-yl)-4-methoxy-5-(quinoxalin-6-yl)pyrrolo[2,1-f][1,2,4]triazin-2-amine], which IC50 is on record?
A: 2.7 nM

Q: For `COc1nc(N[C@H]2CCN(C3COC3)C[C@H]2F)nn2cc(F)c(-c3ccc4ncccc4c3)c12` [Compound 1059, 6-Fluoro-N-((3R,4S)-3-fluoro-1-(oxetan-3-yl)piperidin-4-yl)-4-methoxy-5-(quinolin-6-yl)pyrrolo[2,1-f][1,2,4]triazin-2-amine], which IC50 is on record?
A: 1.9 nM

Q: `COc1nc(N[C@@H]2CCN(C3COC3)CC2(F)F)nn2ccc(-c3cc(F)c4nccn4c3)c12` [Compound 435, (R)—N-(3,3-Difluoro-1-(oxetan-3-yl)piperidin-4-yl)-5-(8-fluoroimidazo[1,2-a]pyridin-6-yl)-4-methoxypyrrolo[2,1-f][1,2,4]triazin-2-amine] was tested. Which IC50 did it give?
A: 8.9 nM

Q: For `COc1nc(NC2CCN(CC(F)F)CC2)nn2ccc(-c3ccc4nccnc4c3)c12` [Compound 362, N-(1-(2,2-Difluoroethyl)piperidin-4-yl)-4-methoxy-5-(quinoxalin-6-yl)pyrrolo[2,1-f][1,2,4]triazin-2-amine], which IC50 is on record?
A: 6 nM

Q: For `CCOc1nc(NC2CC3(C2)CN(C(C)=O)C3)nn2ccc(-c3ccn4nccc4c3)c12` [Compound 99, 1-(6-((4-Ethoxy-5-(pyrazolo[1,5-a]pyridin-5-yl)pyrrolo[2,1-f][1,2,4]triazin-2-yl)amino)-2-azaspiro[3.3]heptan-2-yl)ethan-1-one], which IC50 is on record?
A: 4.5 nM

Q: Which IC50 does the source give for `COc1nc(N[C@@H]2CCN(C)C[C@@H]2F)nn2ccc(-c3ccc4nccnc4c3)c12` [Compound 367, N-((3S,4R)-3-Fluoro-1-methylpiperidin-4-yl)-4-methoxy-5-(quinoxalin-6-yl)pyrrolo[2,1-f][1,2,4]triazin-2-amine] here?
A: 3.3 nM

Q: `COc1nc(N[C@H]2CCN(C3(C#N)COC3)C[C@H]2F)nn2ccc(-c3ccc4nnn(CC(F)F)c4c3)c12` [Compound 769, 3-((3R,4S)-4-((5-(1-(2,2-Difluoroethyl)-1H-benzo[d][1,2,3]triazol-6-yl)-4-methoxypyrrolo[2,1-f][1,2,4]triazin-2-yl)amino)-3-fluoropiperidin-1-yl)oxetane-3-carbonitrile] was tested. Which IC50 did it give?
A: 2.9 nM

Q: How did the IC50 turn out when `COc1nc(N[C@H]2CC[C@@H](OC)CC2)nn2ccc(-c3ccn4nccc4c3)c12` [Compound 9, 4-Methoxy-N-(cis-4-methoxycyclohexyl)-5-(pyrazolo[1,5-a]pyridin-5-yl)pyrrolo[2,1-f][1,2,4]triazin-2-amine] was run?
A: 9960 nM

Q: For `COc1nc(N[C@@H]2CCN(C3COC3)CC2(F)F)nn2ccc(-c3ccc4nccnc4c3)c12` [Compound 379, (R)—N-(3,3-Difluoro-1-(oxetan-3-yl)piperidin-4-yl)-4-methoxy-5-(quinoxalin-6-yl)pyrrolo[2,1-f][1,2,4]triazin-2-amine], which IC50 is on record?
A: 3.3 nM

Q: For `COc1nc(N[C@H]2C[C@@](C)(NC(C)=O)C2)nn2cc(F)c(-c3ccc4ncccc4c3)c12` [Compound 1052, N-(cis-3-((6-Fluoro-4-methoxy-5-(quinolin-6-yl)pyrrolo[2,1-f][1,2,4]triazin-2-yl)amino)-1-methylcyclobutyl)acetamide], which IC50 is on record?
A: 4.5 nM

Q: `COc1nc(NC2CCN(CCF)CC2)nn2ccc(-c3ccn4nccc4c3)c12` [Compound 24, N-(1-(2-Fluoroethyl)piperidin-4-yl)-4-methoxy-5-(pyrazolo[1,5-a]pyridin-5-yl)pyrrolo[2,1-f][1,2,4]triazin-2-amine] was tested. Which IC50 did it give?
A: 14.3 nM

Q: With `COc1nc(N[C@H]2C[C@@H](OCCO)C2)nn2ccc(-c3ccc4nccnc4c3)c12` [Compound 329, 2-(cis-3-((4-Methoxy-5-(quinoxalin-6-yl)pyrrolo[2,1-f][1,2,4]triazin-2-yl)amino)cyclobutoxy)ethan-1-ol] as the molecule, how does the IC50 read?
A: 1.9 nM

Q: With `COc1nc(NC2CCN(C3COC3)CC2)nn2ccc(-c3ccn4nccc4c3)c12` [Compound 26, 4-Methoxy-N-(1-(oxetan-3-yl)piperidin-4-yl)-5-(pyrazolo[1,5-a]pyridin-5-yl)pyrrolo[2,1-f][1,2,4]triazin-2-amine] as the molecule, how does the IC50 read?
A: 7.1 nM

Q: `COc1nc(N[C@H]2CC[C@@H](OCCO)CC2)nn2ccc(-c3ccc4nccnc4c3)c12` [Compound 343, 2-((cis-4-((4-Methoxy-5-(quinoxalin-6-yl)pyrrolo[2,1-f][1,2,4]triazin-2-yl)amino)cyclohexyl)oxy)ethan-1-ol] was tested. Which IC50 did it give?
A: 0.7 nM

Q: How did the IC50 turn out when `COc1nc(N[C@@H]2CCN(C(C)=O)CC2(F)F)nn2cc(F)c(-c3ccc4ncccc4c3)c12` [Compound 1064, (R)-1-(3,3-Difluoro-4-((6-fluoro-4-methoxy-5-(quinolin-6-yl)pyrrolo[2,1-f][1,2,4]triazin-2-yl)amino)piperidin-1-yl)ethan-1-one] was run?
A: 2 nM

Q: How did the IC50 turn out when `COc1nc(NC23CCC(O)(CC2)C3)nn2ccc(-c3ccc4ncnn4c3)c12` [Compound 582, 4-((5-([1,2,4]Triazolo[1,5-a]pyridin-6-yl)-4-methoxypyrrolo[2,1-f][1,2,4]triazin-2-yl)amino)bicyclo[2.2.1]heptan-1-ol] was run?
A: 40.9 nM

Q: How did the IC50 turn out when `COCCO[C@H]1CC[C@H](Nc2nc(OC)c3c(-c4ccc5nccn5c4)ccn3n2)CC1` [Compound 52, 5-(Imidazo[1,2-a]pyridin-6-yl)-4-methoxy-N-(trans-4-(2-methoxyethoxy)cyclohexyl)pyrrolo[2,1-f][1,2,4]triazin-2-amine] was run?
A: 5.2 nM

Q: Which IC50 does the source give for `COc1nc(N[C@@H]2CCN(C3CCC3)CC2(F)F)nn2ccc(-c3ccc4nc(C)n(CC(F)F)c4c3)c12` [Compound 140, (R)—N-(1-Cyclobutyl-3,3-difluoropiperidin-4-yl)-5-(1-(2,2-difluoroethyl)-2-methyl-1H-benzo[d]imidazol-6-yl)-4-methoxypyrrolo[2,1-f][1,2,4]triazin-2-amine] here?
A: 10.7 nM

Q: How did the IC50 turn out when `COc1nc(N[C@H]2C[C@@](C)(NC(=O)C3(C#N)CC3)C2)nn2ccc(-c3ccc4ncnn4c3)c12` [Compound 562, N-((1s,3s)-3-((5-([1,2,4]Triazolo[1,5-a]pyridin-6-yl)-4-methoxypyrrolo[2,1-f][1,2,4]triazin-2-yl)amino)-1-methylcyclobutyl)-1-cyanocyclopropane-1-carboxamide] was run?
A: 1.1 nM

Q: How did the IC50 turn out when `COc1nc(N[C@@H]2CCN(C(C)=O)CC2(F)F)nn2ccc(-c3cc(F)c4nc(C)n(C(C)C)c4c3)c12` [Compound 550, (R)-1-(3,3-Difluoro-4-((5-(4-fluoro-1-isopropyl-2-methyl-1H-benzo[d]imidazol-6-yl)-4-methoxypyrrolo[2,1-f][1,2,4]triazin-2-yl)amino)piperidin-1-yl)ethan-1-one] was run?
A: 1.6 nM

Q: How did the IC50 turn out when `COc1nc(N[C@H]2CC[C@@H](OC(F)(F)F)CC2)nn2ccc(-c3cnc4nccn4c3)c12` [Compound 252, 5-(Imidazo[1,2-a]pyrimidin-6-yl)-4-methoxy-N-(cis-4-(trifluoromethoxy)cyclohexyl)pyrrolo[2,1-f][1,2,4]triazin-2-amine] was run?
A: 2.5 nM

Q: For `COCC[C@@H](C)Nc1nc(OC)c2c(-c3cnc4nccn4c3)ccn2n1` [Compound 926, (R)-5-(Imidazo[1,2-a]pyrimidin-6-yl)-4-methoxy-N-(4-methoxybutan-2-yl)pyrrolo[2,1-f][1,2,4]triazin-2-amine], which IC50 is on record?
A: 5.6 nM

Q: For `COc1nc(N[C@H]2CC[C@@H](NC(C)=O)CC2)nn2cc(F)c(-c3ccc4ncccc4c3)c12` [Compound 1054, N-(cis-4-((6-Fluoro-4-methoxy-5-(quinolin-6-yl)pyrrolo[2,1-f][1,2,4]triazin-2-yl)amino)cyclohexyl)acetamide], which IC50 is on record?
A: 2 nM

Q: For `COCC(=O)N[C@]1(C)C[C@@H](Nc2nc(OC)c3c(-c4ccc5nnn(C)c5c4)ccn3n2)C1` [Compound 208, 2-Methoxy-N-(trans-3-((4-methoxy-5-(1-methyl-1H-benzo[d][1,2,3]triazol-6-yl)pyrrolo[2,1-f][1,2,4]triazin-2-yl)amino)-1-methylcyclobutyl)acetamide], which IC50 is on record?
A: 0.5 nM

Q: With `COc1nc(NCC(C)(C)F)nn2ccc(-c3cnc4nccn4c3)c12` [Compound 924, N-(2-Fluoro-2-methylpropyl)-5-(imidazo[1,2-a]pyrimidin-6-yl)-4-methoxypyrrolo[2,1-f][1,2,4]triazin-2-amine] as the molecule, how does the IC50 read?
A: 2.1 nM
